Measurements: patent US20240402196A1 (Exact Sciences Corporation, priority 2018, published 2024)
Where a name gives a salt, the structure may show the parent alone.

Tests used:
hemoglobin (Hb) = target: T1, hemoglobin (Hb) (Homo sapiens, UniProt P68871+P69905); experiment: Appendix B: additives in Hb Collection Buffer, % Hb Recovery
T1 construct: To assess the stability of hemoglobin in stool samples, samples were exposed to simulated shipping stress conditions; from tissue; host or cells: stool samples

[1] = target: T2, hemoglobin in stool samples (Homo sapiens, UniProt P68871+P69905); experiment: 3-Day shipping simulation, hemoglobin % recovery by ELISA; parameters: from tissue; host or cells: stool samples; conditions: for Notes (Hb stability vs Hb Collection Buffer): additive concentrations as in the 8th table;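 for all read-outs here: stool samples put through shipping stress in a thermal cycler, hemoglobin quantified by ELISA before and after, stability given as post-stress % of the pre-stress level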
[2] = target: T2, hemoglobin in stool samples; experiment: Accelerated shipping simulation (35C 16 hour challenge), hemoglobin % recovery by ELISA; parameters: from tissue; host or cells: stool samples;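 note: stool hemoglobin measured by ELISA before and after thermal-cycler shipping stress, stability given as percent of pre-stress hemoglobin recovered afterwards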

T2 sequence (P69905 2-142 limits assumed): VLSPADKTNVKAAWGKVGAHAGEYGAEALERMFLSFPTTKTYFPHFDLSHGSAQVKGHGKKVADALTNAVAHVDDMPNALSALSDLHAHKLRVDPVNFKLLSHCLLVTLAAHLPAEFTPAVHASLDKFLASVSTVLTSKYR
T2 sequence (P68871 2-147 limits assumed): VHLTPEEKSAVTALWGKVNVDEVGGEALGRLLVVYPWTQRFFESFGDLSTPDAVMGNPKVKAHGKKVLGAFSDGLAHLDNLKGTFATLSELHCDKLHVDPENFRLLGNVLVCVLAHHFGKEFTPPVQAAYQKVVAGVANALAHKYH
T1 sequence (P69905 2-142 limits assumed): as the sequence (P69905 2-142 limits assumed) above
T1 sequence (P68871 2-147 limits assumed): as the sequence (P68871 2-147 limits assumed) above

Compound: C=CC1=C(C)c2cc3[n-]c(cc4nc(cc5[n-]c(cc1n2)c(C)c5C=C)C(C)=C4CCC(=O)O)c(CCC(=O)O)c3C.[Cl-].[Fe+3] [Hemin, pH 6.5]
- Results (hemoglobin (Hb); Additive Concentration 0.00%): Improvement in % Hb
- Results (hemoglobin (Hb); additive concentration 0.0003%): Improvement in % Hb

Compound: C=CC1=C(C)c2cc3[n-]c(cc4nc(cc5[n-]c(cc1n2)c(C)c5C=C)C(C)=C4CCC(=O)O)c(CCC(=O)O)c3C.[Cu+2] [Protoporphyrin IX Copper]
- Results (hemoglobin (Hb); Additive Concentration 0.1 uM): No Improvement
- Results (hemoglobin (Hb); Additive Concentration 1 uM): No Improvement
- Results (hemoglobin (Hb); additive concentration 10 uM): No Improvement

Compound: OC[C@H]1O[C@H](O[C@H]2O[C@H](CO)[C@@H](O)[C@H](O)[C@H]2O)[C@H](O)[C@@H](O)[C@@H]1O [Trehalose]
- Notes (Hb stability vs Hb Collection Buffer) [1]: Improved Hb
- Results ([2]; additive concentration 0.0174 mM): No Improvement
- Results ([2]; additive concentration 0.174 mM): No Improvement
- Results ([2]; additive concentration 1.74 mM): No Improvement
- Results ([2]; additive concentration 10 mM): No Improvement
- Results ([2]; additive concentration 16.76 mM): No Improvement
- Results ([2]; additive concentration 0.3M): Improvement

Compound: [Cl][Ni][Cl] [Nickel Chloride]
- Results ([1]; additive concentration 1 mM): No Improvement
- Results ([1]; additive concentration 10 mM): No Improvement
- Results ([1]; additive concentration 25 mM): No Improvement

Compound: O=c1c(O)c(-c2ccc(O)c(O)c2)oc2cc(O)cc(O)c12 [Quercetin]
- Results ([1]; Additive Concentration 150 uM): No improvement
- Results ([1]; Additive Concentration 300 uM): No improvement
- Results ([1]; Additive Concentration 600 uM): No improvement
- Results ([2]; additive concentration 0.6 uM): No Improvement
- Results ([2]; additive concentration 6 uM): No Improvement
- Results ([2]; additive concentration 60 uM): No Improvement

Compound: O=C(NCO)N(CO)C1(CO)C(=O)NC(=O)N1CO (centres unmarked) [Diazolidinyl Urea]
- Results ([1]; additive concentration 10 mM): No Improvement
- Results ([1]; additive concentration 25 mM): No Improvement
- Results ([1]; additive concentration 50 mM): No Improvement
- Results ([1]; additive concentration 75 mM): No Improvement
- Results ([1]; additive concentration 100 mM): No Improvement
- Results ([2]; additive concentration 10 uM): No Improvement
- Results ([2]; additive concentration 100 uM): No Improvement
- Results ([2]; additive concentration 1 mM): No Improvement
- Results ([2]; additive concentration 10 mM): No Improvement

Compound: OC[C@H]1O[C@@](CO)(O[C@H]2O[C@H](CO)[C@@H](O)[C@H](O)[C@H]2O)[C@@H](O)[C@@H]1O [Sucrose]
- Notes (Hb stability vs Hb Collection Buffer) [1]: Improved Hb
- Results ([2]; additive concentration […]): Improvement

Compound: [Cl][Cu][Cl] [Copper Chloride]
- Results ([1]; additive concentration 1 mM): No Improvement
- Results ([1]; additive concentration 10 mM): No Improvement
- Results ([1]; additive concentration 25 mM): No Improvement

Compound: N.N.N.O=C(O)C1=CC(=C(c2ccc(O)c(C(=O)O)c2)c2ccc(O)c(C(=O)O)c2)C=CC1=O [aurintircarboxylic acid ammonium salt]
- Results ([1]; Additive Concentration 5%): No improvement
- Results ([1]; Additive Concentration 10%): No improvement
- Results ([1]; Additive Concentration 25%): No improvement

Compound: C=CC1=C(C)c2cc3[n-]c(cc4nc(cc5[n-]c(cc1n2)c(C)c5C=C)C(C)=C4CCC(=O)O)c(CCC(=O)O)c3C.[Cl-].[Mn+3] [Protoporphyrin IX Mangansese]
- Results (hemoglobin (Hb); Additive Concentration 0.05 uM): No Improvement
- Results (hemoglobin (Hb); Additive Concentration 0.1 uM): No Improvement
- Results (hemoglobin (Hb); Additive Concentration 1 uM): No Improvement
- Results (hemoglobin (Hb); additive concentration 10 uM): No Improvement

Compound: BSA (10 mM MOPS)
- Results ([1]; Additive Concentration 1%): No Improvement

Compound: [Cl-].[Cl-].[Zn+2] [Zinc Chloride]
- Results ([1]; additive concentration 1 mM): No Improvement
- Results ([1]; additive concentration 10 mM): No Improvement
- Results ([1]; additive concentration 25 mM): No Improvement

Compound: [Ca+2].[Cl-].[Cl-] [Calcium Chloride, pH 6.5]
- Results (hemoglobin (Hb); Additive Concentration 10 mM): No Improvement

Compound: [Cl][Co][Cl] [Cobalt Chloride]
- Results ([1]; additive concentration 0.001M): No Improvement
- Results ([1]; additive concentration 0.01M): No Improvement
- Results ([1]; additive concentration 0.05M): No Improvement

Compound: Oc1ccc(C=Cc2cc(O)cc(O)c2)cc1 [Resveratrol]
- Results ([1]; Additive Concentration 10 mM): No improvement
- Results ([1]; additive concentration 5 mM): No improvement
- Results ([1]; additive concentration 20 mM): No improvement

Compound: O=C(O)[C@H]1OC(O)[C@H](O)[C@@H](O)[C@H]1O (some centres unmarked) [Galaturonic Acid]
- Results (hemoglobin (Hb); Additive Concentration 0.01%): No Improvement
- Results (hemoglobin (Hb); Additive Concentration 0.01% + 10 mM): No improvement
- Results (hemoglobin (Hb); Additive Concentration 0.10%): No Improvement
- Results (hemoglobin (Hb); Additive Concentration 0.1% + 10 mM): No improvement
- Results (hemoglobin (Hb); Additive Concentration 1%): No Improvement
- Results (hemoglobin (Hb); Additive Concentration 1% + 10 mM): No improvement

Compound: Cn1sccc1=O [Methylisothiazolone]
- Results ([1]; Additive Concentration 0.0001%): No improvement
- Results ([1]; Additive Concentration 0.0002%): No improvement
- Results ([1]; Additive Concentration 0.0010%): No improvement
- Results ([1]; Additive Concentration 0.0020%): No improvement
- Results ([1]; additive concentration 0.00005%): No improvement

Compound: O=[N+]([O-])C1(Br)COCOC1 [Bronidox]
- Results ([1]; Additive Concentration 0.0002%): No improvement
- Results ([1]; Additive Concentration 0.0010%): No improvement
- Results ([1]; Additive Concentration 0.0020%): No improvement

Compound: BSA, pH 6.5
- Results (hemoglobin (Hb); Additive Concentration 0%): No Improvement
- Results (hemoglobin (Hb); Additive Concentration 0.50%): No Improvement
- Results (hemoglobin (Hb); Additive Concentration 1%): No Improvement
- Results (hemoglobin (Hb); Additive Concentration 5%): No Improvement
- Results (hemoglobin (Hb); Additive Concentration 10%): No Improvement

Compound: O=CCCCC=O [Glutaraldehyde Solution]
- Results ([1]; additive concentration 0.010%): No Improvement
- Results ([1]; additive concentration 0.020%): No Improvement
- Results ([1]; additive concentration 0.030%): No Improvement
- Results ([1]; additive concentration 0.035%): No Improvement
- Results ([1]; additive concentration 0.040%): No Improvement
- Results ([1]; additive concentration 0.050%): No Improvement
- Results ([1]; additive concentration 0.060%): Assay Interference
- Results ([1]; additive concentration 0.070%): Assay Interference
- Results ([1]; additive concentration 0.080%): No Improvement
- Results ([1]; additive concentration 0.090%): No Improvement
- Results ([1]; additive concentration 0.100%): No Improvement

Compound: O=C([O-])CNCO.[Na+] [Soduim hyrdoxylmethyl glycinate]
- Results ([1]; additive concentration 10 mM): No Improvement
- Results ([1]; additive concentration 25 mM): No Improvement
- Results ([1]; additive concentration 50 mM): No Improvement
- Results ([1]; additive concentration 75 mM): No Improvement
- Results ([1]; additive concentration 90 mM): No Improvement

Compound: [Cl][Fe]([Cl])[Cl] [Iron (3) Chloride]
- Results ([1]; additive concentration 1 mM): No Improvement
- Results ([1]; additive concentration 5 mM): No Improvement
- Results ([1]; additive concentration 10 mM): No Improvement

Compound: Cc1ncc(CO)c(CO)c1O [Vitamine B6 in HCl]
- Results ([1]; additive concentration 0.5 mM): No improvement
- Results ([1]; additive concentration 1 mM): No improvement
- Results ([1]; additive concentration 2 mM): No improvement

Compound: CCC(=O)[O-].CCC(=O)[O-].[Ca+2] [Calcium Propionate]
- Results ([1]; additive concentration 5 mM): Calcium cation shows
- Results ([1]; additive concentration 10 mM): Calcium cation shows
- Results ([1]; additive concentration 20 mM): Calcium cation shows
- Results ([1]; additive concentration 30 mM): Calcium cation shows
- Results ([1]; additive concentration 40 mM): Calcium cation shows
- Results ([1]; additive concentration 50 mM): Calcium cation shows

Compound: C=O [Formaldehyde Solution]
- Results ([1]; additive concentration 0.010%): No Improvement
- Results ([1]; additive concentration 0.020%): No Improvement
- Results ([1]; additive concentration 0.030%): No Improvement
- Results ([1]; additive concentration 0.035%): No Improvement
- Results ([1]; additive concentration 0.040%): No Improvement
- Results ([1]; additive concentration 0.050%): No Improvement
- Results ([1]; additive concentration 0.060%): No Improvement
- Results ([1]; additive concentration 0.070%): No Improvement
- Results ([1]; additive concentration 0.080%): No Improvement
- Results ([1]; additive concentration 0.090%): No Improvement
- Results ([1]; additive concentration 0.100%): No Improvement
- Results ([1]; additive concentration […]): No Improvement

Compound: O=C1O[C@H]([C@@H](O)CO)C(O)=C1O [Ascorbic Acid]
- Results ([1]; additive concentration 0.5 mM): No improvement
- Results ([1]; additive concentration 1 mM): No improvement
- Results ([1]; additive concentration 5 mM): No improvement
- Results ([2]; additive concentration 0.2 uM): No Improvement
- Results ([2]; additive concentration 5 uM): No Improvement
- Results ([2]; additive concentration 10 uM): No Improvement
- Results ([2]; additive concentration 100 uM): No Improvement
- Results ([2]; additive concentration 10 mM): No Improvement
- Results ([2]; additive concentration 25 mM): No Improvement
- Results ([2]; additive concentration l uM): No Improvement

Compound: Cc1c(C)c2c(c(C)c1O)CCC(C)(CCCC(C)CCCC(C)CCCC(C)C)O2 (centres unmarked) [Tocopherol]
- Results ([1]; Additive Concentration 0.10%): No improvement
- Results ([1]; Additive Concentration 1%): No improvement
- Results ([1]; Additive Concentration 10%): No improvement

Compound: O=c1c(-c2ccc(O)cc2)coc2cc(O)ccc12 [Diadzein]
- Results ([1]; Additive Concentration 60 mM): No improvement
- Results ([1]; additive concentration 25 uM): No improvement
- Results ([1]; additive concentration 50 uM): No improvement
- Results ([1]; additive concentration 100 uM): No improvement
- Results ([1]; additive concentration 40 mM): No improvement
- Results ([1]; additive concentration 50 mM): No improvement

Compound: C=CC1=C(C)c2cc3[n-]c(cc4nc(cc5[n-]c(cc1n2)c(C)c5C=C)C(C)=C4CCC(=O)O)c(CCC(=O)O)c3C.[Cl-].[Ga+3] [Protoporphyrin IX Gallium]
- Results ([2]; additive concentration 1.25 uM): No Improvement
- Results ([2]; additive concentration 5 uM): No Improvement

Compound: NCCCC[C@H](N)C(=O)O [Lysine]
- Results ([2]; additive concentration 0.0687 mM): No Improvement
- Results ([2]; additive concentration 0.687 mM): No Improvement
- Results ([2]; additive concentration 6.87 mM): No Improvement

Compound: C=CC1=C(C)c2cc3[n-]c(cc4[n-]c(cc5nc(cc1n2)C(C)=C5C=C)c(C)c4CCC(=O)O)c(CCC(=O)O)c3C.[Cl-].[Fe+3] [Hemin (DMSO)]
- Results ([2]; additive concentration 0.0003%): Improvement in % Hb

Compound: O=c1cc(-c2ccccc2)oc2c(O)c(O)ccc12 [7,8 dihydroxyflavone]
- Results ([1]; additive concentration 0.5 mM): No improvement
- Results ([1]; additive concentration 1 mM): No improvement

Compound: O=C(O)CC(NCCNC(CC(=O)O)C(=O)O)C(=O)O (centres unmarked)
- Results ([2]; additive concentration 10 uM): No Improvement
- Results ([2]; additive concentration 100 uM): No Improvement
- Results ([2]; additive concentration 1 mM): No Improvement
- Results ([2]; additive concentration 10 mM): No Improvement
